Experimental findings from patent US20240174662A1, “SMALL MOLECULE INHIBITORS OF SALT INDUCIBLE KINASES” (Janssen Biotech, Inc., priority 2021, published 2024) are described below.

As usually defined, the IC50 is the concentration needed to halve the response being measured.

The test deals with SIK2 (Homo sapiens (Human), UniProt Q9H0K1). Nature of the test: SIK2 Enzymatic Assay Version 2 (High ATP). The format is biochemical. As to conditions: 3 mM ATP and 200 μM HDAC5tide final, ADP-Glo Max luminescence. Put shortly: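 Run at room temperature; SIK2 enzyme at 6 nM (2× final) preincubated with compound 30 min before reaction. ADP formation detected by ADP-Glo Max (2 h reagent, 1 h detection) with luminescence read-out.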
SIK2, sequence (Q9H0K1 whole entry, species assumed): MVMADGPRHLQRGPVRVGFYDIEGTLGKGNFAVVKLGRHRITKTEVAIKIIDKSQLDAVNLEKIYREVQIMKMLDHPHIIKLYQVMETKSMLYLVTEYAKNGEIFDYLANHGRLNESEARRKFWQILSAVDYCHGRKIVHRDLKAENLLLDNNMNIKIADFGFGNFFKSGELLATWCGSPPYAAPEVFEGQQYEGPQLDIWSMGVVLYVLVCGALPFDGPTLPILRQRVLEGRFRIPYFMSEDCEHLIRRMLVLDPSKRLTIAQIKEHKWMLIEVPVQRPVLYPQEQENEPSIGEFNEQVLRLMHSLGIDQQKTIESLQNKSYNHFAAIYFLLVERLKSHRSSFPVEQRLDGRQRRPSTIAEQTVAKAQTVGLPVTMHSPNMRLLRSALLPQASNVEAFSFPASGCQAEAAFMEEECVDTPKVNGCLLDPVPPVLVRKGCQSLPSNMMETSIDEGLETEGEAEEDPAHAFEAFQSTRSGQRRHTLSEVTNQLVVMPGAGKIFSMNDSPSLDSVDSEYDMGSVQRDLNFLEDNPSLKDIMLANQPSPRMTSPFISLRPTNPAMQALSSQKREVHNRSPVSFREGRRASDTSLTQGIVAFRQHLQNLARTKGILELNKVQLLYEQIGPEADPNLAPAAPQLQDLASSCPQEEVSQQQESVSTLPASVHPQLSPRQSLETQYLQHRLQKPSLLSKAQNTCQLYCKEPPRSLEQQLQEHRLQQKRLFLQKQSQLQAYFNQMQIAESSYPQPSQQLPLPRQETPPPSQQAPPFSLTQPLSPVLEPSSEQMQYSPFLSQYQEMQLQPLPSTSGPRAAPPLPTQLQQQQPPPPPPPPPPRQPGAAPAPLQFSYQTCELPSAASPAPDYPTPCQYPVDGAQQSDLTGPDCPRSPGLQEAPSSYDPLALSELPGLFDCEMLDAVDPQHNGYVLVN

Turning to `CC(C)c1cc(Nc2cc3cc(-c4c(O[C@H]5CCN(C)C5)cnn4C)ccn3n2)ncn1` [Example 271, N-(6-isopropylpyrimidin-4-yl)-5-[2-methyl-4-[(3S)-1-methylpyrrolidin-3-yl]oxy-pyrazol-3-yl]pyrazolo[1,5-a]pyridin-2-amine], the midpoint of inhibition, the IC50, lay at 40.8 nM.
Next, `CN1CC[C@H](Oc2cnn(C)c2-c2ccn3nc(Nc4ccnc(C5CC5)n4)cc3c2)C1` [Example 281, N-(2-cyclopropylpyrimidin-4-yl)-5-[2-methyl-4-[(3S)-1-methylpyrrolidin-3-yl]oxy-pyrazol-3-yl]pyrazolo[1,5-a]pyridin-2-amine]: 29.1 nM; `Cc1cc(Nc2cc3cc(-c4c(OC[C@H]5CCCN5C)cnn4C)ccn3n2)nc(C)n1` [Example 282, N-(2,6-dimethylpyrimidin-4-yl)-5-[2-methyl-4-[[(2R)-1-methylpyrrolidin-2-yl]methoxy]pyrazol-3-yl]pyrazolo[1,5-a]pyridin-2-amine]: 11.3 nM; `Cn1ncc(CO[C@@H]2CNCC2(F)F)c1-c1ccn2nc(NC(=O)C3CC3)cc2c1` (single isomer, unassigned) [Example 189, (*R)—N-[5-[4-[(4,4-difluoropyrrolidin-3-yl)oxymethyl]-2-methyl-pyrazol-3-yl]pyrazolo[1,5-a]pyridin-2-yl]cyclopropanecarboxamide]: 12 nM.
In turn, `CN1CC[C@H](Oc2cnn(C)c2-c2ccn3nc(Nc4cnc5ccccc5n4)cc3c2)C1` [Example 343, N-[5-[2-methyl-4-[(3S)-1-methylpyrrolidin-3-yl]oxy-pyrazol-3-yl]pyrazolo[1,5-a]pyridin-2-yl]quinoxalin-2-amine] had an IC50 of 54.8 nM. This IC50 lies about 4.6-fold higher than the previous one.
`Cn1ncc(O[C@H]2CCNC2)c1-c1ccn2nc(NC(=O)C3CC3)cc2c1` [Example 236, N-[5-[2-methyl-4-[(3S)-pyrrolidin-3-yl]oxy-pyrazol-3-yl]pyrazolo[1,5-a]pyridin-2-yl]cyclopropanecarboxamide] showed an IC50 of 29.1 nM.
The molecule `CN1CC[C@H](Oc2cnn(C)c2-c2ccn3nc(Nc4cncc(C(F)(F)F)n4)cc3c2)C1` [Example 7, 5-[2-methyl-4-[(3S)-1-methylpyrrolidin-3-yl]oxy-pyrazol-3-yl]-N-[6-(trifluoromethyl)pyrazin-2-yl]pyrazolo[1,5-a]pyridin-2-amine] came in with an IC50 of 78.7 nM.
As to `CCc1cc(Nc2cc3cc(-c4c(OC[C@@H]5CCN5C)cnn4C)ccn3n2)nc(C)n1` [Example 137, N-(6-ethyl-2-methyl-pyrimidin-4-yl)-5-[2-methyl-4-[[(2S)-1-methylazetidin-2-yl]methoxy]pyrazol-3-yl]pyrazolo[1,5-a]pyridin-2-amine], the IC50 came out at 16.9 nM. Compared with the last molecule, the IC50 is about 4.7-fold lower.
Take `CNC(=O)c1nc(C)cc(Nc2cc3cc(-c4c(OC[C@H]5CCN5C)cnn4C)ccn3n2)n1` [Example 109, N,4-dimethyl-6-[[5-[2-methyl-4-[[(2R)-1-methylazetidin-2-yl]methoxy]pyrazol-3-yl]pyrazolo[1,5-a]pyridin-2-yl]amino]pyrimidine-2-carboxamide]: inhibition was half-maximal at 6.2 nM (IC50).
On to `Cn1ncc(O[C@@H]2CCNC2)c1-c1ccn2nc(NC(=O)C3CC3)cc2c1` [Example 335, N-[5-[2-methyl-4-[(3R)-pyrrolidin-3-yl]oxy-pyrazol-3-yl]pyrazolo[1,5-a]pyridin-2-yl]cyclopropanecarboxamide], for which inhibition was half-maximal at 68.7 nM (IC50).
For `Cc1onc(OCC2(F)CN(C)C2)c1-c1ccn2nc(NC(=O)C3CC3)cc2c1` [Example 84, N-[5-[3-[(3-fluoro-1-methyl-azetidin-3-yl)methoxy]-5-methyl-isoxazol-4-yl]pyrazolo[1,5-a]pyridin-2-yl]cyclopropanecarboxamide], the IC50 worked out at 204 nM.
Molecule `Cc1cncc(Nc2cc3cc(-c4c(CO[C@H]5CN(C)C[C@@H]5C)cnn4C)ccn3n2)n1` (stereo in doubt) [Example 374, Trans-*S, *R-5-[4-[(1,4-dimethylpyrrolidin-3-yl)oxymethyl]-2-methyl-pyrazol-3-yl]-N-(6-methylpyrazin-2-yl)pyrazolo[1,5-a]pyridin-2-amine] showed an IC50 of 17.3 nM.
For `Cc1cc(Nc2cc3cc(-c4c(OC[C@H]5CCN5C)cnn4C)ccn3n2)nc(C(=O)NCC(C)(C)O)c1` [Example 113, N-(2-hydroxy-2-methyl-propyl)-4-methyl-6-[[5-[2-methyl-4-[[(2R)-1-methylazetidin-2-yl]methoxy]pyrazol-3-yl]pyrazolo[1,5-a]pyridin-2-yl]amino]pyridine-2-carboxamide], the IC50 is 22.3 nM.
`Cc1cncc(Nc2cc3cc(-c4c(OC[C@H]5CCN5)cnn4C)ccn3n2)n1` [Example 45, 5-[4-[[(2R)-azetidin-2-yl]methoxy]-2-methyl-pyrazol-3-yl]-N-(6-methylpyrazin-2-yl)pyrazolo[1,5-a]pyridin-2-amine] came in with a half-inhibitory concentration (IC50) of 24.1 nM. The IC50 values of the last two molecules are within 1.5-fold of each other.
Turning to `Cc1cc(Nc2cc3cc(-c4c(OC[C@@H]5CCN5C)cnn4C)ccn3n2)nc(C(F)(F)F)n1` [Example 308, 5-[2-methyl-4-[[(2S)-1-methylazetidin-2-yl]methoxy]pyrazol-3-yl]-N-[6-methyl-2-(trifluoromethyl)pyrimidin-4-yl]pyrazolo[1,5-a]pyridin-2-amine], the IC50 was found to be 15.3 nM.
For `CN1CCC(Oc2cnn(C)c2-c2ccn3nc(NC(=O)C4CC4)cc3c2)CC1` [Example 492, N-[5-[2-methyl-4-[(1-methyl-4-piperidyl)oxy]pyrazol-3-yl]pyrazolo[1,5-a]pyridin-2-yl]cyclopropanecarboxamide], the IC50 was 432 nM.
Next, `Cn1ncc(O[C@@H]2CNC[C@@H]2F)c1-c1ccn2nc(NC(=O)C3CC3)cc2c1` [Example 242, N-[5-[4-[(3R,4S)-4-fluoropyrrolidin-3-yl]oxy-2-methyl-pyrazol-3-yl]pyrazolo[1,5-a]pyridin-2-yl]cyclopropanecarboxamide]: 8.3 nM; `CN1CC[C@@H]1COc1cnn(C)c1-c1ccn2nc(Nc3cnc(C(C)(C)C)cn3)cc2c1` [Example 381, N-(5-tert-butylpyrazin-2-yl)-5-[2-methyl-4-[[(2R)-1-methylazetidin-2-yl]methoxy]pyrazol-3-yl]pyrazolo[1,5-a]pyridin-2-amine]: 3.6 nM; `Cn1ncc(OC[C@H]2C[C@@H](N)C2)c1-c1ccn2nc(NC(=O)C3CC3)cc2c1` [Example 400, N-[5-[4-[(3-aminocyclobutyl)methoxy]-2-methyl-pyrazol-3-yl]pyrazolo[1,5-a]pyridin-2-yl]cyclopropanecarboxamide]: 108 nM.
With `C[C@H]1[C@H](COc2cnn(C)c2-c2ccn3nc(NC(=O)C4CC4)cc3c2)CN1C` (single isomer, unassigned) [Example 337, (2*S, 3*R)—N-[5-[4-[(1,2-dimethylazetidin-3-yl)methoxy]-2-methyl-pyrazol-3-yl]pyrazolo[1,5-a]pyridin-2-yl]cyclopropanecarboxamide], the IC50 was found to be 54.4 nM. Against the preceding molecule, the IC50 is about 2-fold lower.
Next, `C[C@@H]1C[C@H](Oc2cnn(C)c2-c2ccn3nc(NC(=O)C4CC4)cc3c2)CN1` [Example 233, N-[5-[2-methyl-4-[(3S,5R)-5-methylpyrrolidin-3-yl]oxy-pyrazol-3-yl]pyrazolo[1,5-a]pyridin-2-yl]cyclopropanecarboxamide]: 30.2 nM.
Molecule `[2H]C([2H])([2H])C([2H])([2H])N1CC[C@@H]1COc1cnn(C)c1-c1ccn2nc(Nc3cc(C)nc(C)n3)cc2c1` [Example 294, N-(2,6-dimethylpyrimidin-4-yl)-5-[2-methyl-4-[[(2R)-1-(1,1,2,2,2-pentadeuterioethyl)azetidin-2-yl]methoxy]pyrazol-3-yl]pyrazolo[1,5-a]pyridin-2-amine] yielded an IC50 of 2.6 nM.
In the case of `Cc1snc(OC[C@H]2CN(C)CCO2)c1-c1ccn2nc(NC(=O)C3CC3)cc2c1` [Example 332, N-[5-[5-methyl-3-[[(2R)-4-methylmorpholin-2-yl]methoxy]isothiazol-4-yl]pyrazolo[1,5-a]pyridin-2-yl]cyclopropanecarboxamide], the IC50 was 58.3 nM. This IC50 is about 22-fold higher than that of the molecule before.
As to `C[C@@H]1CN(C)C[C@@H]1OCc1cnn(C)c1-c1ccn2nc(NC(=O)C3CC3)cc2c1` (single isomer, unassigned) [Example 197, (3*R, 4*R)—N-[5-[4-[(1,4-dimethylpyrrolidin-3-yl)oxymethyl]-2-methyl-pyrazol-3-yl]pyrazolo[1,5-a]pyridin-2-yl]cyclopropanecarboxamide], the midpoint of inhibition, the IC50, lay at 28.1 nM.
The molecule `Cc1onc(OC2CN(C)C2)c1-c1ccn2nc(NC(=O)C3CC3)cc2c1` [Example 494, N-[5-[5-methyl-3-(1-methylazetidin-3-yl)oxy-isoxazol-4-yl]pyrazolo[1,5-a]pyridin-2-yl]cyclopropanecarboxamide] had an IC50 of 424 nM.
In turn, `Cc1cncc(Nc2cc3cc(-c4c(CO[C@@H]5CN(C)C[C@H]5C)cnn4C)ccn3n2)n1` (stereo in doubt) [Example 375, Trans-*R, *S-5-[4-[(1,4-dimethylpyrrolidin-3-yl)oxymethyl]-2-methyl-pyrazol-3-yl]-N-(6-methylpyrazin-2-yl)pyrazolo[1,5-a]pyridin-2-amine] came in with a 50% inhibitory concentration (IC50) of 3.1 nM.
With `C[C@@H](O)CN1CC[C@@H]1COc1cnn(C)c1-c1ccn2nc(NC(=O)C3CC3)cc2c1` [Example 252, N-[5-[4-[[(2R)-1-[(2R)-2-hydroxypropyl]azetidin-2-yl]methoxy]-2-methyl-pyrazol-3-yl]pyrazolo[1,5-a]pyridin-2-yl]cyclopropanecarboxamide], the IC50 worked out at 9.4 nM. Against the preceding molecule, the IC50 is about 3-fold higher.
Next, `Cc1cc(Nc2cc3cc(-c4c(CO[C@H]5CN(C)C[C@H]5C)cnn4C)ccn3n2)nc(C)n1` (stereo in doubt) [Example 368, CIS—*R, *R—N-(2,6-dimethylpyrimidin-4-yl)-5-[4-[(1,4-dimethylpyrrolidin-3-yl)oxymethyl]-2-methyl-pyrazol-3-yl]pyrazolo[1,5-a]pyridin-2-amine]: 3.3 nM; `CN[C@H](COc1noc(C)c1-c1ccn2nc(NC(=O)C3CC3)cc2c1)c1ccccn1` [Example 224, N-[5-[5-methyl-3-[(2S)-2-(methylamino)-2-(2-pyridyl)ethoxy]isoxazol-4-yl]pyrazolo[1,5-a]pyridin-2-yl]cyclopropanecarboxamide]: 21.4 nM.
